Data: patent US12686855B2, “Generation of pancreatic endoderm from stem cell derived definitive endoderm” (ASPECT BIOSYSTEMS LTD., priority 2019, dated 2026)

Columns and labels:
[1] = test system: definitive endoderm cells derived from human pluripotent stem cells (hES line SA121); assay: Differentiation of definitive endoderm to pancreatic endoderm, gene expression analysis (Nanostring) on PE10; type: cell-based; conditions: treatment on PE2-3, vs standard protocol
Experimental: (§1) Human embryonic stem (hES) cells line SA121 (Cellectis) are expanded in DEF-CS culture medium (Takara BIO Europe) in fibronectin (Sigma) coated culture flasks (Corning) with 30 ng/ml bFGF (Peprotech) and 10 ng/ml noggin (Peprotech). Cells are single cell passaged with 10 μM Rock inhibitor Y-27632 (Sigma #Y0503) and seeded in shaker flasks or bioreactors (DASBOX, DASGIP, Eppendorf) at a density of 0.5-1 mio/ml and allowed to form clusters under constant stirring conditions.
(§2) After 1-3 days in DEF-CS medium with daily medium change, the clusters are differentiated to DE as described in WO2012/175633 (which is incorporated herein by reference in its entirety). The cell clusters are washed once in RPM11640 (Gibco #61870) and treated with 2-7 μM CHIR99021 (Axon #1386) in RPM11640. After 24 hours the cells were washed with RPM11640 and treated with 25-100 ng/ml Activin A (Peprotech #120-14E) and 2% B27 (Invitrogen #17504-044) in RPM11640 for 3 days with medium change every 24 or 48 hours. Cells are maintained at 37° C. and 5% CO2 in a humidified shaker incubator (Infors) during the differentiation to DE, or in a bioreactor system (DASBOX, DASGIP, Eppendorf).
(§3) Medium was changed daily or every other day. At the end of PE differentiation clusters were analysed by flow cytometry or gene expression analysis (Nanostring). 10 μM AGN193109 (Tocris 5758) was added to the LDN stage of PE differentiation, whereas the remaining part of the protocol was unchanged.

[2] = test system: definitive endoderm cells derived from human pluripotent stem cells (hES line SA121); assay: Differentiation of definitive endoderm to pancreatic endoderm, flow cytometry (FACS) at PE stage; type: cell-based
Experimental: as §1, §2, §3

[3] = molecular target: T1, RARγ (Homo sapiens, UniProt P13631); conditions: cited from earlier work
T1 sequence (P13631 1-454): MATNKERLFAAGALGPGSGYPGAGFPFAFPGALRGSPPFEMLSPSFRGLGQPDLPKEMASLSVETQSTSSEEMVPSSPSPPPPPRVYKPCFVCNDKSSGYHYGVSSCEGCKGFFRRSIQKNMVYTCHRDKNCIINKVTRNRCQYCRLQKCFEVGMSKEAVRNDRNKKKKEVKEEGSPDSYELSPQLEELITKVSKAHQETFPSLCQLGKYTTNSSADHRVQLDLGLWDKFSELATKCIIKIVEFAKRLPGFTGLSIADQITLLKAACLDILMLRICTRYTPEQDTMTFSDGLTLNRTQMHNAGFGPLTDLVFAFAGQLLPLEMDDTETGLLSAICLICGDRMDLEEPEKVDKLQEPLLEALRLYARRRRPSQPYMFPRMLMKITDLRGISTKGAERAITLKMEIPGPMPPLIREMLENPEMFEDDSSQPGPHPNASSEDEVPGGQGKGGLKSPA

[4] = test system: differentiated cells at the beta cell stage; assay: Transplantation of differentiated cells at the beta cell stage, immunohistochemistry and quantitative image analysis; type: in vivo; conditions: 8 weeks after transplantation
[5] = molecular target: T2, RARα (Homo sapiens, UniProt P10276); conditions: RARα transfected CV-1 cells; equal molar AGN 193109 against ATRA; cited from earlier work
T2 sequence (P10276 1-462): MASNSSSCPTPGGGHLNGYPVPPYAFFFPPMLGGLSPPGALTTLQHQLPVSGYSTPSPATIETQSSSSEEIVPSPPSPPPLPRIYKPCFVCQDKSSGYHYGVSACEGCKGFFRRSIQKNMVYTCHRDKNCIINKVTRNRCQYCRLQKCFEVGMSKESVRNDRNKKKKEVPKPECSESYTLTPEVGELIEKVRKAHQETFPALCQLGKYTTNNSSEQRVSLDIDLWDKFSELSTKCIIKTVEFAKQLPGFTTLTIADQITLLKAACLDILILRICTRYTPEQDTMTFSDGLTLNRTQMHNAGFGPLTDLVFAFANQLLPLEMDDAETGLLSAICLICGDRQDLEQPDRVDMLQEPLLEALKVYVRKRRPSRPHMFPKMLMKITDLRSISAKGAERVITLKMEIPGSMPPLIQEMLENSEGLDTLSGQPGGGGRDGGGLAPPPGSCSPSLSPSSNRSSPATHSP

[6] = molecular target: T3, RARβ (Homo sapiens, UniProt P10826); conditions: cited from earlier work
T3 sequence (P10826 1-455): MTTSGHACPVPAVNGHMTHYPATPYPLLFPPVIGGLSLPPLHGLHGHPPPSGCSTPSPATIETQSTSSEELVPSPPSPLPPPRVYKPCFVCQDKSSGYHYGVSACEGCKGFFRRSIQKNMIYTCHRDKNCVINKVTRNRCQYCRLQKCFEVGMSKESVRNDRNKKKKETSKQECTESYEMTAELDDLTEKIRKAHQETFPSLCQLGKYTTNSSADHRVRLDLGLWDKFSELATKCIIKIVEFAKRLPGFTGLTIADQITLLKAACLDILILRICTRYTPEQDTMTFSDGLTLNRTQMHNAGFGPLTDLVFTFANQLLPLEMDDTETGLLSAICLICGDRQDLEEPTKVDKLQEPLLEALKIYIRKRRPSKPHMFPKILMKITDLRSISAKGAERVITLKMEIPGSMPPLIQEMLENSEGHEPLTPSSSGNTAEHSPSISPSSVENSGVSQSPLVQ

[7] = molecular target: T3, RARβ; conditions: RARβ transfected CV-1 cells; equal molar AGN 193109 against ATRA; cited from earlier work
[8] = molecular target: T1, RARγ; conditions: RARγ transfected CV-1 cells; equal molar AGN 193109 against ATRA; cited from earlier work
[9] = test system: definitive endoderm cells derived from human pluripotent stem cells (hES line SA121); assay: Differentiation of definitive endoderm to pancreatic endoderm, flow cytometry (FACS) at PE stage; type: cell-based; conditions: PE10
[10] = test system: human ES cell or human iPS cell derived PE clusters; assay: Further differentiation of PE clusters to beta cell like cells, flow cytometry on Cpep/Nkx6.1 and glucagon; type: cell-based; conditions: for Cpep/Nkx6.1 double positive: extended in vitro culture
Text: The human ES cell or human iPS cell derived PE clusters are washed and further differentiated to endocrine progenitors (EP) and beta cell like cells (BC), using protocols for endocrine and beta cell induction, as described in WO2015/028614, WO2017/144695 and WO/2019/048690, which are all incorporated herein by reference in their entirety.
At the end of BC differentiation clusters were sampled, dissociated to single cells with TrypLE-Select (Gibco 12563-011), fixed in 10% formalin, stained with Cpep/Nkx6.1 and glucagon and analyzed by flow cytometry.

[11] = molecular target: T2, RARα; conditions: cited from earlier work
[12] = treatment on PE2-3, PE10, standard protocol 52%, FIG. 4

## AM580
[1]
  DLK1 expression: marked down regulation
  NeuroD expression: marked increase
  Ngn3 expression: marked increase
  Nkx6.1 expression: marked down regulation
  PTF1A expression: marked down regulation
[2]; [12]
  Pdx1/Nkx6.1 double positive: ~ 14%

## Cc1ccc(C2=CCC(C)(C)c3ccc(C#Cc4ccc(C(=O)O)cc4)cc32)cc1 [AGN193109]
[1]
  CPA1 expression: increase
  DLK1 expression: increase
  NeuroD expression: lower expression
  Ngn3 expression: lower expression
  PTF1A expression: increase
[3]
  Kd: 2 nM
[4]
  beta to alpha cell ratio (fraction of insulin positive cells relative to glucagon positive cells): higher
[5]
  antagonism of ATRA-induced transcription: 85%
[6]
  Kd: 2 nM
[7]
  antagonism of ATRA-induced transcription: 62%
[8]
  antagonism of ATRA-induced transcription: 100%
[9]; 1, 3 and 10 μM on PE2-3, FIG. 5A
  Pdx1-only positive cells with increasing concentrations: decrease
[9]; PE2-3, FIG. 5B
  effect of increasing the concentration from 10 μM to 20 μM on PE induction: no additional effect
[9]; range from 0.5 μM to 20 μM on PE2-3
  dose dependence of effect on Pdx1/Nkx6.1 double positive cells: dose-responsive
[2]; 10 μM for last 2 days of LDN stage (PE2-3), PE10, standard condition around 40%, FIGS. 1A,B
  Pdx1/Nkx6.1 double positive: at least 70%
[2]; 10 μM on PE2-3, PE10
  Pdx1/Nkx6.1 double negative cells: less than 10%
[2]; 10 μM, PE10, FIG. 6A
  effect on PE induction (Pdx1/Nkx6.1 double positive) of extending addition from 2 to 4 days in the LDN stage: without any negative effect
[2]; 1 L bioreactors (DASgip, Eppendorf), 10 μM on PE2-3, PE10, standard protocol 58.4%, not run in parallel
  Pdx1/Nkx6.1 double positive: 82.2%
[2]; added on PE2-3, PE11, standard 13%
  DLK1 expressing pancreatic endoderm (flow cytometry): 31%
[2]; rescue of suboptimal PE differentiation, standard 20%, PE10
  Pdx1/Nkx6.1 double positive cells: 75%
[2]; treatment on PE2-3, PE10, control 2.9%
  percentage of Nkx2.2 positive cells at the PE stage: less than 1%
[2]; [12]
  Pdx1/Nkx6.1 double positive: 76.9%
[10]; AGN193109 in LDN stage (PE2-3), BC6-9, standard around 35%
  Cpep/Nkx6.1 double positive beta like cells: around 50%
[10]; AGN193109 in LDN stage, BC stage, FIG. 7B
  Glucagon positive cells: not accompanied by an increase
[10]; BC day 6, standard protocol 53%
  Cpep/Nkx6.1 double positive: 59%
[10]; BC day 13, standard protocol 27%
  Cpep/Nkx6.1 double positive: 57%
[11]
  Kd: 2 nM
